According to ChEMBL document CHEMBL5223106, “Targeting non-alcoholic fatty liver disease: Design, X-ray co-crystal structure and synthesis of 'first-in-kind' inhibitors of serine/threonine kinase25” (Bioorg Med Chem Lett, 2022):
Each block holds one molecule with its values, some of them ahead of it. Calls of active or inactive are those of the source. The rule behind the calls is not given here.

Columns and labels:
[1] = target: T1, Serine/threonine-protein kinase 25 (Homo sapiens, UniProt O00506); assay: Inhibition of STK25 (unknown origin) by FRET assay
[2] = target: T1, Serine/threonine-protein kinase 25; assay: Inhibition of STK25 (unknown origin)
Target sequence in this assay (O00506 whole entry): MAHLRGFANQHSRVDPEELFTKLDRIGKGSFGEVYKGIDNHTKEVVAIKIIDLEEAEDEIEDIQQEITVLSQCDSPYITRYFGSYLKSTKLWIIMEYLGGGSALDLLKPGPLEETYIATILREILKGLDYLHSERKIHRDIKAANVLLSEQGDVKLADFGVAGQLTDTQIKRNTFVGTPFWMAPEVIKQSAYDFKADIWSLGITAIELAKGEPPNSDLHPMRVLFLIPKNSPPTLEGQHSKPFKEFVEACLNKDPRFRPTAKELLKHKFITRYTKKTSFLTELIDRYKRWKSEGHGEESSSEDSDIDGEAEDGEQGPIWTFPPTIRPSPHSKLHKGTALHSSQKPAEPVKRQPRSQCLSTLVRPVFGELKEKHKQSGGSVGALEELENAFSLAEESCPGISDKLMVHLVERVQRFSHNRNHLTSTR

[3] = Permeability of the compound in human Caco-2 cells at 10 uM; assay type: ADME, cell-based; conditions: caco-2, 10 µM
[4] = Clearance in mouse microsomes; assay type: ADME, Microsome
[5] = Solubility of compound; assay type: physicochemical
[6] = Clearance in human microsomes; assay type: ADME, Microsome
[7] = target: T1, Serine/threonine-protein kinase 25; assay: Inhibition of STK25 (unknown origin) by cellular target engagement assay
Target sequence in this assay (O00506 whole entry): as above

[8] = Cytotoxicity against human HepG2 cells assessed as cell growth inhibition; assay type: toxicity, cell-based
[9] = Plasma protein binding in mouse plasma assessed as free fraction; assay type: ADME, cell-free
[10] = Efflux ratio of permeability across basolateral to apical side over apical to basolateral side in human Caco-2 cells; assay type: ADME, cell-based

Compound: Cc1ccc(C(=O)Nc2cc(C(C)(C)C)n[nH]2)cc1-n1cc(-c2cncc(N3CCOCC3)c2)nn1
IC50 [2]: 12 nM

Compound: CC(C)(C)c1cc(NC(=O)c2ccc(S(=O)(=O)NC3CCCC3)cc2)n[nH]1
IC50 [1]: 865 nM

Compound: CCCCOc1ccc(C(=O)Nc2cc(C(C)(C)C)[nH]n2)cc1
IC50 [1]: 616 nM

Compound: CC(C)(C)c1cc(NC(=O)c2ccc(C(=O)N3CCCC3)cc2)n[nH]1
IC50 [1]: 5160 nM

Compound: O=C(Nc1c[nH]nc1-c1nc2cc(CN3CCOCC3)ccc2[nH]1)NC1CC1 [AT-9283]
IC50 [2]: 460 nM

Compound: CC(C)(C)c1cc(NC(=O)c2ccc(S(=O)(=O)N3CCCC3)cc2)n[nH]1
permeability [3]: 100%
CL [4]: 145 mL/min/g
solubility [5]: > 100 µM
CL [6]: 75 mL/min/g
IC50 [7]: 211 nM
IC50 [8]: > 100000 nM
IC50 [1]: 228 nM
fraction unbound [9]: 0.26
efflux ratio [10]: 1

Second part, the molecule after the results:

inhibition [1]: inactive
Compound: CC(C)(C)c1cc(NC(=O)c2nnn3c2CO[C@@H](Cc2ccccc2)C3)n[nH]1

inhibition [1]: inactive
Compound: CC(C)(C)c1cc(NC(=O)c2nnn3c2CO[C@H](c2ccccc2)C3)n[nH]1

inhibition [1]: inactive
Compound: CC(C)(C)c1cc(NC(=O)c2nnn3c2CO[C@@H](c2ccccc2)C3)n[nH]1

inhibition [1]: inactive
Compound: CC(C)(C)c1cc(NC(=O)c2nnn3c2CO[C@H](Cc2ccccc2)C3)n[nH]1
